The target of one data set is APT2 (Homo sapiens, UniProt O95372). The format is binding.
For data set [1] the following is noted: cited from earlier work.
Data set [2] concerns the target APT2 triple mutant L78I/A85S/P86Q (Homo sapiens, UniProt O95372, A85S/L78I/P86Q). The format is biochemical.
A further data set has as its target APT2-L78I (Homo sapiens, UniProt O95372, L78I). Particulars: ResOAc substrate.

APT2, sequence (O95372 whole entry): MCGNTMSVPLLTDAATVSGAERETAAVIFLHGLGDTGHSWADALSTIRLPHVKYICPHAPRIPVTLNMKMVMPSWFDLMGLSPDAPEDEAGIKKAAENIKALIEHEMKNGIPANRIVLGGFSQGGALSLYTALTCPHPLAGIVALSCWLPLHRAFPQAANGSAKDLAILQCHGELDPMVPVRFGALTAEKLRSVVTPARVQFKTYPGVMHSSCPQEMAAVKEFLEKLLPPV
APT2 triple mutant L78I/A85S/P86Q, sequence (O95372 whole entry L78I/A85S/P86Q): as the sequence (O95372 whole entry) above, with L78I, A85S, P86Q counted along it
APT2-L78I, sequence (O95372 whole entry L78I): as the sequence (O95372 whole entry) above, with L78I counted along it

At APT2, `CCCCCCCC/C=C\CCCCCCCC(=O)OC[C@@H](O)COP(=O)([O-])OCC[N+](C)(C)C` [1-oleoyl-2-hydroxy-sn-glycero-3-phosphocholine] gave an IC50 of 4.3 ± 0.4 µM.

Regarding `COc1ccc(N2CCN(C(=O)c3cc4c(s3)-c3ccccc3[S+]([O-])C4)CC2)cc1` (stereo not drawn) [ML349-sulfoxide], the “binding / inhibition of APT2 (in words)” value on APT2 was “some residual inhibition”.

At APT2, `CCCCCCCC/C=C\CCCCCCCC(=O)O` [oleic acid] had an IC50 of 9.9 ± 0.6 µM. For the same compound, the “critical micelle concentration (CMC)” value in data set [1] is 6 µM.

In the case of ML348, in data set [2], the “potency (in words)” value is on record as “improved ML348 potency”. The compound also returned a Ki on APT2-L78I of 5.8 µM.

By IC50 is commonly meant the concentration that gives 50% inhibition. The low end stands for higher potency, the high end for lower potency. In general, Ki refers to a measure of affinity in units of concentration, obtained from inhibition or displacement.

The values are drawn from paper PMC5359770 (ACS chemical biology, 2016).
